From patent EP4647061A1, “COMPOSITION CONTAINING RETINOL AND SYNERGIST AND USE THEREOF” (Guangzhou Jiyan Cosmetics Technology Co., Ltd., priority 2024, dated 2025)

Tests used:
Format in all cases: cell-based
[1] = system: COL III (type III collagen); assay: Transcription of type III collagen (COL III) by qRT-PCR in UVA-stimulated fibroblast model; conditions: for PCR Transcription of Type III Collagen (COL III) Up-regulation Rate Compared with NC Group: UVA 30 J/cm^2, (sample - NC)/NC x 100%; for PCR Transcription of Type III Collagen (COL III) Mean Value: UVA 30 J/cm^2, mRNA by 2^-ΔΔCT normalised to BC = 1 (NC 0.67), dosing: TGF-β1 100 ng/mL, Pro-xylane 0.5000%, tetrapeptide-1 0.00109%, encapsulated retinol 0.00313%, combination at the same concentrations, 1440 min
Description: (§1) Testing method: based on UVA-stimulated fibroblast model, transcription of type I and type III collagens was tested using qRT-PCR method, and specific steps were as follows: • 1) Cell inoculation: after resuscitation of fibroblasts, when a plating rate reached about 60%, cells were inoculated in a 6-well plate, and incubated overnight in an incubator (37 °C, 5% CO2). • 2) Liquid formulation: according to test schemes (see TABLE 1 and TABLE 2), test substance working solutions were formulated respectively according to mass ratios. TABLE 1 COL I Detection Scheme
(§2) 3) Dosing: according to the test schemes in TABLE 1 and TABLE 2, when the plating rate of the cells in the 6-well plate reached about 30%-50%, dosing was performed for the groups respectively, with each group in triplicate. The blank control group and the negative control group were added with 2 mL of a culture solution per well, the positive control group was added with 2 mL of a TGF-β1-containing culture solution per well, and sample group was added with 2mL of a test sample-containing culture solution at corresponding concentration per well. After the dosing was completed, the 6-well plate continued to be cultured in the CO2 incubator (37 °C, 5% CO2) for 24 h.
(§3) 4) UVA stimulation: according to test groups, except the blank control group, other groups were all subjected to UVA irradiation, with an irradiation dosage of 30 J/cm^2. After the irradiation was finished, culture was continued in the CO2 incubator (37 °C, 5% CO2) for 24 h.
(§4) 5) Cell collection: after incubation was ended, an original solution was sucked out and discarded, PBS cleaning was performed twice, and each well was added with 1 mL of RNAiso Plus, to pipet and lyse the cells, after which samples were collected.
(§5) 6) Detection of gene expression: RNA was extracted and subjected to reverse transcription to cDNA to undergo fluorescence quantitative PCR detection, and result was calculated by a 2^-△△CT method.
(§6) 7) Calculation of up-regulation rate: Up-regulation rate (%) = (Sample group−Negative control group)/(Negative control group) × 100% [formula]
(§7) 8) Data analysis: statistical analysis was performed using t-test method, and normalization processing was performed on amplification factors of mRNA in BC group, where all statistical analysis was double-tailed. Compared with the blank group, significance is expressed by ^#, p<0.05 is expressed by ^#, p<0.01 is expressed by ^##; compared with the negative blank group, significance is expressed by*, p<0.05 is expressed by *, p<0.01 is expressed by **.

COLI (type I collagen) = assay: Transcription of type I collagen (COL I) by qRT-PCR in UVA-stimulated fibroblast model; conditions: for PCR Transcription of Type I Collagen (COL I) Up-regulation Rate Compared with NC Group: UVA 30 J/cm^2, (sample - NC)/NC x 100%; for PCR Transcription of Type I Collagen (COL I) Mean Value: UVA 30 J/cm^2, mRNA by 2^-ΔΔCT normalised to BC = 1 (NC 0.43), dosing: TGF-β1 100 ng/mL, Pro-xylane 0.5000%, tetrapeptide-1 0.00109%, encapsulated retinol 0.00313%, gum 0.00222%, combinations at the same concentrations, 1440 min
Description: as §1, §2, §3, §4, §5, §6, §7

[2] = system: CRABP2 cellular retinoic acid binding protein 2; assay: Transcription of CRABP2 by qRT-PCR in UVA-stimulated fibroblast model
Description: Testing method: based on UVA-stimulated fibroblast model, transcription of CRABP2 was tested using qRT-PCR method, and specific steps were as follows: • 1) Cell inoculation: after resuscitation of cells, when a plating rate reached about 60%, the cells were inoculated in a 6-well plate, and incubated overnight in an incubator (37 °C, 5% CO2). • 2) Liquid formulation: according to a test scheme (see TABLE 5), test substance working solutions were formulated respectively according to mass ratios. TABLE 5 CRABP2 Detection Scheme
as §2, with “According” for “according”, “scheme” for “schemes”, “5,” for “1 and TABLE 2,”, “2 mL” for “2mL”, “h. […]” for “h.”
6) Detection of gene expression: RNA was extracted and subjected to reverse transcription to cDNA to undergo fluorescence quantitative PCR detection, and result was calculated by a 2^-△△CT method. […]

| Compound | PCR Transcription of Type III Collagen (COL III) Up-regulation Rate Compared with NC Group [1] [%] | PCR Transcription of Type III Collagen (COL III) Mean Value [1] | PCR Transcription of Type I Collagen (COL I) Up-regulation Rate Compared with NC Group (COLI (type I collagen)) [%] | PCR Transcription of Type I Collagen (COL I) Mean Value (COLI (type I collagen)) | Transcription of Cellular Retinoic Acid Binding Protein 2 (CRABP2) Up-regulation Rate Compared with NC Group ([2]; UVA 30 J/cm^2, (sample - NC)/NC x 100%) [%] | Transcription of Cellular Retinoic Acid Binding Protein 2 (CRABP2) Mean Value ([2]; UVA 30 J/cm^2, mRNA by 2^-ΔΔCT normalised to BC = 1 (NC 0.48), dosing: TGF-β1 100 ng/mL, gum 0.00222%, encapsulated retinol 0.00313%, tetrapeptide-1 0.00109%, combinations at the same concentrations, 1440 min) |
| --- | --- | --- | --- | --- | --- | --- |
| CC(O)C[C@@H]1OC[C@@H](O)[C@H](O)[C@H]1O (stereo partly shown) [Comparative Example 1, Pro-xylane, reference compound] | 31.34 | 0.88 | 134.88 | 1.01 | – | – |
| Tetrapeptide-1 [Comparative Example 2] | 5.97 | 0.71 | 25.58 | 0.54 | 20.83 | 0.58 |
